Experiments:
[1] = target: Casein kinase I isoform epsilon (Homo sapiens) (UniProt P49674); conditions: Compound concentration 1000.0 nM
[2] = target: Non-receptor tyrosine-protein kinase TYK2 (Homo sapiens) (UniProt P29597); conditions: Compound concentration 1000.0 nM
[3] = target: Tyrosine-protein kinase Fes/Fps (Homo sapiens) (UniProt P07332); conditions: Compound concentration 1000.0 nM
[4] = target: Sigma intracellular receptor 2 (Homo sapiens) (UniProt Q5BJF2); conditions: Compound concentration 10.0 uM
Sigma intracellular receptor 2 (Homo sapiens), sequence (Q5BJF2 whole entry): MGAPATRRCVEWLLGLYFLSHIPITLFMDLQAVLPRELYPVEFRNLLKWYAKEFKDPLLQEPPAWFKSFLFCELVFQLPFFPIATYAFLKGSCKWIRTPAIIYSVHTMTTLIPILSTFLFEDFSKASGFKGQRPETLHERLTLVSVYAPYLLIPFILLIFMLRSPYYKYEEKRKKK

[5] = target: Phosphatidylinositol 4-phosphate 5-kinase type-1 gamma (Homo sapiens) (UniProt O60331); conditions: Compound concentration 1000.0 nM
[6] = target: cGMP-dependent protein kinase 1 (Homo sapiens) (UniProt Q13976); conditions: Compound concentration 1000.0 nM
cGMP-dependent protein kinase 1 (Homo sapiens), sequence (Q13976 whole entry): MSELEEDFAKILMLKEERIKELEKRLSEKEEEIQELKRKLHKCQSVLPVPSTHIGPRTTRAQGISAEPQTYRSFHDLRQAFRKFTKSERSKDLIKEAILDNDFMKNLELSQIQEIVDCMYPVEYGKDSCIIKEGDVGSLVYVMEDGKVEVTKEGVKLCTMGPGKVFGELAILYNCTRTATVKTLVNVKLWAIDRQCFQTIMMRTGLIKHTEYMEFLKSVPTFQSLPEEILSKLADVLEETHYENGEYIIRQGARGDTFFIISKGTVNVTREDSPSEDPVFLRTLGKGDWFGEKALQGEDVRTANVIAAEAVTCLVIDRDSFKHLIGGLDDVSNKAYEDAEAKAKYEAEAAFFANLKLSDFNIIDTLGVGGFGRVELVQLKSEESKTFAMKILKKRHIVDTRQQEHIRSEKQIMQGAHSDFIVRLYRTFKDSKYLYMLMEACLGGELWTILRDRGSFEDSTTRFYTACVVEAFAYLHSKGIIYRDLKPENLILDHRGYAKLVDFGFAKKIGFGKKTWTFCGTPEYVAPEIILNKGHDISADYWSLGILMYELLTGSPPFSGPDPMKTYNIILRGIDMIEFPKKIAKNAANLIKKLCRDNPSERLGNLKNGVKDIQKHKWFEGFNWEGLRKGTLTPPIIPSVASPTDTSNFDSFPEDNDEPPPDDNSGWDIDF

[7] = target: Histamine H1 receptor (Homo sapiens) (UniProt P35367); conditions: Compound concentration 10.0 uM
[8] = target: Serine/threonine-protein kinase MRCK gamma (Homo sapiens) (UniProt Q6DT37); conditions: Compound concentration 1000.0 nM
[9] = target: Serine/threonine-protein kinase 38 (Homo sapiens) (UniProt Q15208); conditions: Compound concentration 1000.0 nM
[10] = target: Serine/threonine-protein kinase 17A (Homo sapiens) (UniProt Q9UEE5); conditions: Compound concentration 1000.0 nM
[11] = target: Serine/threonine-protein kinase PLK2 (Homo sapiens) (UniProt Q9NYY3); conditions: Compound concentration 1000.0 nM
[12] = target: Ribosomal protein S6 kinase alpha-1 (Homo sapiens) (UniProt Q15418); conditions: Compound concentration 1000.0 nM
Ribosomal protein S6 kinase alpha-1 (Homo sapiens), sequence (Q15418 whole entry): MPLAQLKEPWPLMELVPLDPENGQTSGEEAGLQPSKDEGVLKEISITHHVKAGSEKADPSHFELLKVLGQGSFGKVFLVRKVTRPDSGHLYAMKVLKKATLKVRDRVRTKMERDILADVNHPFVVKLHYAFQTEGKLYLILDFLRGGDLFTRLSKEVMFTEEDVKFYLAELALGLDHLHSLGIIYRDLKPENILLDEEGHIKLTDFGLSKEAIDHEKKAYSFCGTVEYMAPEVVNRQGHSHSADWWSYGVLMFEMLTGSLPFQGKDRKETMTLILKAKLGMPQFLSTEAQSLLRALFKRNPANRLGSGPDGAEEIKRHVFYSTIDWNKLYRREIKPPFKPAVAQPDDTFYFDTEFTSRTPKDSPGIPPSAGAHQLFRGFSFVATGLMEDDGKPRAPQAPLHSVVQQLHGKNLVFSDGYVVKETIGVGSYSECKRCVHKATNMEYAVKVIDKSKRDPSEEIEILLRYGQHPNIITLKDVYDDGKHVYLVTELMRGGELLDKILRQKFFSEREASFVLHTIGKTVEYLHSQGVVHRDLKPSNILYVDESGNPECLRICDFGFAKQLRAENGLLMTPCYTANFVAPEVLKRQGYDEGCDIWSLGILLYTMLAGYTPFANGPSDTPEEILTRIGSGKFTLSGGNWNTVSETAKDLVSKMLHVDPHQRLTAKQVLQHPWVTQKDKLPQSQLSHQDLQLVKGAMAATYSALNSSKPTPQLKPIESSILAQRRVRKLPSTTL

[13] = target: Rhodopsin kinase GRK1 (Homo sapiens) (UniProt Q15835); conditions: Compound concentration 1000.0 nM
[14] = target: Cyclin-dependent kinase 15 (Homo sapiens) (UniProt Q96Q40); conditions: Compound concentration 1000.0 nM
[15] = target: Macrophage colony-stimulating factor 1 receptor (Homo sapiens) (UniProt P07333); conditions: Compound concentration 1000.0 nM
[16] = target: Tyrosine-protein kinase Mer (Homo sapiens) (UniProt Q12866); conditions: Compound concentration 1000.0 nM
[17] = target: Calcium/calmodulin-dependent protein kinase type 1 (Homo sapiens) (UniProt Q14012); conditions: Compound concentration 1000.0 nM
[18] = target: Atypical kinase COQ8A, mitochondrial (Homo sapiens) (UniProt Q8NI60); conditions: Compound concentration 1000.0 nM
[19] = target: Beta-2 adrenergic receptor (Homo sapiens) (UniProt P07550); conditions: Compound concentration 10.0 uM
[20] = target: Atypical kinase COQ8B, mitochondrial (Homo sapiens) (UniProt Q96D53); conditions: Compound concentration 1000.0 nM
[21] = target: Aurora kinase C (Homo sapiens) (UniProt Q9UQB9); conditions: Compound concentration 1000.0 nM
[22] = test system: Phosphatidylinositol 4,5-bisphosphate 3-kinase catalytic subunit alpha isoform (Homo sapiens), P42336 [Q546K]; conditions: Compound concentration 1000.0 nM
Rattus norvegicus = species: Rattus norvegicus; conditions: Compound concentration 10.0 uM
[23] = target: Tyrosine-protein kinase Blk (Homo sapiens) (UniProt P51451); conditions: Compound concentration 1000.0 nM
[24] = target: Ribosomal protein S6 kinase alpha-2 (Homo sapiens) (UniProt Q15349); conditions: Compound concentration 1000.0 nM
[25] = target: Histamine H2 receptor (Homo sapiens) (UniProt P25021); conditions: Compound concentration 10.0 uM
[26] = target: Phosphatidylinositol 3-kinase catalytic subunit type 3 (Homo sapiens) (UniProt Q8NEB9); conditions: Compound concentration 1000.0 nM
Phosphatidylinositol 3-kinase catalytic subunit type 3 (Homo sapiens), sequence (Q8NEB9 whole entry): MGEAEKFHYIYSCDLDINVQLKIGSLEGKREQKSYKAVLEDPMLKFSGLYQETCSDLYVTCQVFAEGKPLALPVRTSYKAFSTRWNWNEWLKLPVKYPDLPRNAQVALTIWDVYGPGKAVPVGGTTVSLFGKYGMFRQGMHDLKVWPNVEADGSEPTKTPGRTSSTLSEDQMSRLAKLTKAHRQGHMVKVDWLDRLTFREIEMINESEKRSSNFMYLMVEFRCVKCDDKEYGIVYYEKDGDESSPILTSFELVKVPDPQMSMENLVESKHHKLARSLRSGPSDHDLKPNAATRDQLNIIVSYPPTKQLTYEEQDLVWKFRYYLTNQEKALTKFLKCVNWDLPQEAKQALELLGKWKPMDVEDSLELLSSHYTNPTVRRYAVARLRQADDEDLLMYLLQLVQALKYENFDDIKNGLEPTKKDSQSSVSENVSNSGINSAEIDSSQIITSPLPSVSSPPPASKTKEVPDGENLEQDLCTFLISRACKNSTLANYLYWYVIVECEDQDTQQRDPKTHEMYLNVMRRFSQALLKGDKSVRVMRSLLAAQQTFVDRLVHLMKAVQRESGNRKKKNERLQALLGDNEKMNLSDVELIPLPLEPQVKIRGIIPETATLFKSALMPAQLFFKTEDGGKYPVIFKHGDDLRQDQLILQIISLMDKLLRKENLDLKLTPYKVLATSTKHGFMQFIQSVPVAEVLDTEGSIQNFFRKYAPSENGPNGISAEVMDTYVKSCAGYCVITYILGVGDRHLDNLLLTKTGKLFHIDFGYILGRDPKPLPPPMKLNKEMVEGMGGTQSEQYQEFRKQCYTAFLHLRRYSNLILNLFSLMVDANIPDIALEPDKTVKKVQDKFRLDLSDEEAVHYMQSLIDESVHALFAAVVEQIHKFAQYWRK

[27] = target: Insulin-like growth factor 1 receptor (Homo sapiens) (UniProt P08069); conditions: Compound concentration 1000.0 nM
[28] = target: Ribosomal protein S6 kinase alpha-3 (Homo sapiens) (UniProt P51812); conditions: Compound concentration 1000.0 nM
[29] = target: Homeodomain-interacting protein kinase 3 (Homo sapiens) (UniProt Q9H422); conditions: Compound concentration 1000.0 nM
Homeodomain-interacting protein kinase 3 (Homo sapiens), sequence (Q9H422 whole entry, looked up): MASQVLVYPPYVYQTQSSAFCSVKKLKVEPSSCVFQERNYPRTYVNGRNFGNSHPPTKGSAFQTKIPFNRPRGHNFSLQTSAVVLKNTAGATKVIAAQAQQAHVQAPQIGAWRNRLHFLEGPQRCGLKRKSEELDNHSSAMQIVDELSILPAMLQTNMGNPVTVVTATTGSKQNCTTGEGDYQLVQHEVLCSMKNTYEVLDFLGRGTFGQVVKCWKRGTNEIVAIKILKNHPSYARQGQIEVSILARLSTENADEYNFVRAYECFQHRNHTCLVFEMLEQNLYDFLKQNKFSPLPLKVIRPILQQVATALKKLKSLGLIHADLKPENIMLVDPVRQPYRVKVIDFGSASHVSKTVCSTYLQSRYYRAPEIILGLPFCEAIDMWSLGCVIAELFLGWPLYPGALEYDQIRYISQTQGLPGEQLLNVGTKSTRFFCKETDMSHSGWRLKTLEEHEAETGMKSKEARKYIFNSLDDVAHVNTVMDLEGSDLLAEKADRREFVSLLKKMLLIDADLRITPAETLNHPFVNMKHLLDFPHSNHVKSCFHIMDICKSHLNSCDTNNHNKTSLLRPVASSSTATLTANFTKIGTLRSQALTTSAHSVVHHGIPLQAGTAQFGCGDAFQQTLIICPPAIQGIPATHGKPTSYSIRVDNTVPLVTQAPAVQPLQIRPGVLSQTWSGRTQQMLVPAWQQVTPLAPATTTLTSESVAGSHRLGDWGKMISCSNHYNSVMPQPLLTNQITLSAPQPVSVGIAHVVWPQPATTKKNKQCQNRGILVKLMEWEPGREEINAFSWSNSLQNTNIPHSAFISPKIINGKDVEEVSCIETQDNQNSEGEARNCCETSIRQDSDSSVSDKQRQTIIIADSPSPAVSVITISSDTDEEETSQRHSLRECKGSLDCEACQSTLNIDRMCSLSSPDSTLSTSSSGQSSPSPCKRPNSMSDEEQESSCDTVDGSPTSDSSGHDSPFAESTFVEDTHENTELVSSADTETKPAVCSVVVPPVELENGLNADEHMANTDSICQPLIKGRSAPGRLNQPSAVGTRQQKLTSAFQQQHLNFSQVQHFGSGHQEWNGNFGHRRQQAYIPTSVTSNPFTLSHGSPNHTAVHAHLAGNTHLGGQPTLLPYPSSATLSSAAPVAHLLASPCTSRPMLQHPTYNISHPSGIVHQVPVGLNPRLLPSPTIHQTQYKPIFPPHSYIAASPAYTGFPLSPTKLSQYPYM

[30] = target: Cyclin-dependent kinase-like 3 (Homo sapiens) (UniProt Q8IVW4); conditions: Compound concentration 1000.0 nM
[31] = target: Tyrosine-protein kinase CSK (Homo sapiens) (UniProt P41240); conditions: Compound concentration 1000.0 nM
Tyrosine-protein kinase CSK (Homo sapiens), sequence (P41240 2-450 limits assumed): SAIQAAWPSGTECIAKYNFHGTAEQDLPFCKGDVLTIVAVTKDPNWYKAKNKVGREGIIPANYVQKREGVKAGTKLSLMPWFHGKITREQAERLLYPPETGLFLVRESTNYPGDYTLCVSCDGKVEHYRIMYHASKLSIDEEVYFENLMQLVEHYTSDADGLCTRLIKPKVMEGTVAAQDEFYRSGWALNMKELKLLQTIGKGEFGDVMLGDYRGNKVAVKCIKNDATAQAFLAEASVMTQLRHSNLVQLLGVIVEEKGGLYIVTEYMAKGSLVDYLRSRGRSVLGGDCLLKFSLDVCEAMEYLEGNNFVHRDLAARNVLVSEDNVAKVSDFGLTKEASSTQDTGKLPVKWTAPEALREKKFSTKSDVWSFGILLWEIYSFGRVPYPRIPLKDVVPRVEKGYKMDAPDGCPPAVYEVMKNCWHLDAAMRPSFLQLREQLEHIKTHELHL

[32] = target: Ephrin type-A receptor 8 (Homo sapiens) (UniProt P29322); conditions: Compound concentration 1000.0 nM
[33] = target: SNF-related serine/threonine-protein kinase (Homo sapiens) (UniProt Q9NRH2); conditions: Compound concentration 1000.0 nM
[34] = target: Beta-adrenergic receptor kinase 1 (Homo sapiens) (UniProt P25098); conditions: Compound concentration 1000.0 nM
[35] = target: cAMP-dependent protein kinase catalytic subunit beta (Homo sapiens) (UniProt P22694); conditions: Compound concentration 1000.0 nM
[36] = test system: Tyrosine-protein kinase ABL1 (Homo sapiens), P00519 [H396P]; conditions: Compound concentration 1000.0 nM
[37] = target: Death-associated protein kinase 1 (Homo sapiens) (UniProt P53355); conditions: Compound concentration 1000.0 nM
[38] = test system: Epidermal growth factor receptor (Homo sapiens), P00533 [L858R]; conditions: Compound concentration 1000.0 nM
[39] = target: Calcium/calmodulin-dependent protein kinase type 1B (Homo sapiens) (UniProt Q6P2M8); conditions: Compound concentration 1000.0 nM
Calcium/calmodulin-dependent protein kinase type 1B (Homo sapiens), sequence (Q6P2M8 whole entry): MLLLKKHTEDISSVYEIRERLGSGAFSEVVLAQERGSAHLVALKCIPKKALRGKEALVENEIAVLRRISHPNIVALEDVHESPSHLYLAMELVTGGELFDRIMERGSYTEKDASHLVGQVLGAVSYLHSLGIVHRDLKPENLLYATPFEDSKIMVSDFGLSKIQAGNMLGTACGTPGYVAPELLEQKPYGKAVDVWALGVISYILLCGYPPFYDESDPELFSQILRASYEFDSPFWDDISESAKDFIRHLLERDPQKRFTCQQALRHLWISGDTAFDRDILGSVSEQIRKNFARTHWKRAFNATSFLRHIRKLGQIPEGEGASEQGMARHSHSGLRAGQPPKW

[40] = target: Ephrin type-A receptor 6 (Homo sapiens) (UniProt Q9UF33); conditions: Compound concentration 1000.0 nM
[41] = target: Dual specificity protein kinase CLK1 (Homo sapiens) (UniProt P49759); conditions: Compound concentration 1000.0 nM
[42] = target: Serine/threonine-protein kinase PknB (Mycobacterium tuberculosis) (UniProt P9WI81); conditions: Compound concentration 1000.0 nM
[43] = target: Phosphatidylinositol 4,5-bisphosphate 3-kinase catalytic subunit alpha isoform (Homo sapiens) (UniProt P42336); conditions: Compound concentration 1000.0 nM
[44] = target: Serine/threonine-protein kinase B-raf (Homo sapiens) (UniProt P15056); conditions: Compound concentration 1000.0 nM
[45] = target: Vascular endothelial growth factor receptor 1 (Homo sapiens) (UniProt P17948); conditions: Compound concentration 1000.0 nM

Casein kinase I isoform epsilon (Homo sapiens), sequence (P49674 whole entry, looked up, canonical isoform): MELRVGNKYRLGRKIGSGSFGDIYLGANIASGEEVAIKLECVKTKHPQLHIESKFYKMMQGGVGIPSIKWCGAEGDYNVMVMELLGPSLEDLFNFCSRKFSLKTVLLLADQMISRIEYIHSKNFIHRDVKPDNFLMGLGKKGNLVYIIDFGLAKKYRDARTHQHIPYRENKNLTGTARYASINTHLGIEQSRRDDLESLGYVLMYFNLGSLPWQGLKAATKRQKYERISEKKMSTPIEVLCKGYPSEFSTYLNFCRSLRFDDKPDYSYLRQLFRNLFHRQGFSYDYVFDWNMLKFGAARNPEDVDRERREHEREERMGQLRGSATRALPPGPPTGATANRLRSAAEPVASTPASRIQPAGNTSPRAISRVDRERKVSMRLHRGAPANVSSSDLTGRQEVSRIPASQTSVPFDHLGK

CS(=O)(=O)NCC[C@H](NC(=O)c1cncc2c1cnn2-c1ccc(F)cc1)c1ccnc(S(C)(=O)=O)c1 [BI 9307]
residual activity [1]: 100% | residual activity [2]: 100% | residual activity [3]: 100% | inhibition [4]: -1.85% | residual activity [5]: 78% | residual activity [6]: 96% | inhibition [7]: 12.5% | residual activity [8]: 100% | residual activity [9]: 100% | residual activity [10]: 100% | residual activity [11]: 100% | residual activity [12]: 100% | residual activity [13]: 100% | residual activity [14]: 79% | residual activity [15]: 100% | residual activity [16]: 100% | residual activity [17]: 94% | residual activity [18]: 95% | inhibition [19]: -5.93% | residual activity [20]: 100% | residual activity [21]: 92% | residual activity [22]: 73% | inhibition (Rattus norvegicus): -5.04% | residual activity [23]: 100% | residual activity [24]: 100% | inhibition [25]: 2.46% | residual activity [26]: 100% | residual activity [27]: 100% | residual activity [28]: 98% | residual activity [29]: 100% | residual activity [30]: 99% | residual activity [31]: 98% | residual activity [32]: 100% | residual activity [33]: 100% | residual activity [34]: 100% | residual activity [35]: 100% | residual activity [36]: 100% | residual activity [37]: 100% | residual activity [38]: 83% | residual activity [39]: 85% | residual activity [40]: 100% | residual activity [41]: 93% | residual activity [42]: 93% | residual activity [43]: 83% | residual activity [44]: 79% | residual activity [45]: 90%

CS(=O)(=O)c1cc(C2(NC(=O)c3cncc4c3cnn4-c3ccc(F)cc3)CC2)ccn1 [BI 639667]
residual activity [1]: 84% | residual activity [2]: 73% | residual activity [3]: 100% | inhibition [4]: 9.02% | residual activity [5]: 95% | residual activity [6]: 100% | inhibition [7]: 11.2% | residual activity [8]: 100% | residual activity [9]: 100% | residual activity [10]: 84% | residual activity [11]: 70% | residual activity [12]: 79% | residual activity [13]: 87% | residual activity [14]: 100% | residual activity [15]: 100% | residual activity [16]: 100% | residual activity [17]: 65% | residual activity [18]: 100% | inhibition [19]: -7.76% | residual activity [20]: 100% | residual activity [21]: 100% | residual activity [22]: 66% | inhibition (Rattus norvegicus): 17.9% | residual activity [23]: 100% | residual activity [24]: 100% | inhibition [25]: 3.34% | residual activity [26]: 86% | residual activity [27]: 100% | residual activity [28]: 100% | residual activity [29]: 85% | residual activity [30]: 96% | residual activity [31]: 95% | residual activity [32]: 99% | residual activity [33]: 88% | residual activity [34]: 48% | residual activity [35]: 100% | residual activity [36]: 100% | residual activity [37]: 83% | residual activity [38]: 100% | residual activity [39]: 78% | residual activity [40]: 100% | residual activity [41]: 98% | residual activity [42]: 99% | residual activity [43]: 100% | residual activity [44]: 87% | residual activity [45]: 100%
